Assays:
Type in all cases: cell-based, human
[1] = system: CCRF-CEM; experiment: NCI five-dose assay; details: Leukemia
[2] = system: HL-60(TB); experiment: NCI five-dose assay; details: Leukemia
[3] = system: K-562; experiment: NCI five-dose assay; details: K-562, Leukemia
[4] = system: MOLT-4; experiment: NCI five-dose assay; details: MOLT-4, Leukemia
[5] = system: RPMI-8226; experiment: NCI five-dose assay; details: RPMI-8226, Leukemia
[6] = system: SR; experiment: NCI five-dose assay; details: Leukemia
[7] = system: HOP-92; experiment: NCI five-dose assay; details: HOP-92, Non-small cell lung cancer
[8] = system: SW-620; experiment: NCI five-dose assay; details: SW-620, Colon cancer
[9] = system: SF-539; experiment: NCI five-dose assay; details: SF-539, CNS cancer
[10] = system: LOX IMVI; experiment: NCI five-dose assay; details: Melanoma
[11] = system: MALME-3M; experiment: NCI five-dose assay; details: Melanoma
[12] = system: SK-MEL-2; experiment: NCI five-dose assay; details: SK-MEL-2, Melanoma
[13] = system: UACC-257; experiment: NCI five-dose assay; details: Homo sapiens, UACC-257, Melanoma
[14] = system: UACC-62; experiment: NCI five-dose assay; details: UACC-62, Melanoma
[15] = system: OVCAR-3; experiment: NCI five-dose assay; details: Homo sapiens, OVCAR-3, Ovarian cancer
[16] = system: OVCAR-4; experiment: NCI five-dose assay; details: OVCAR-4, Ovarian cancer
[17] = system: OVCAR-5; experiment: NCI five-dose assay; details: OVCAR-5, Ovarian cancer
[18] = system: NCI/ADR-RES; experiment: NCI five-dose assay; details: Ovarian cancer
[19] = system: ACHN; experiment: NCI five-dose assay; details: Renal cancer
[20] = system: CAKI-1; experiment: NCI five-dose assay; details: CAKI-1, Renal cancer
[21] = system: RXF393; experiment: NCI five-dose assay; details: RXF393, Renal cancer
[22] = system: SN12C; experiment: NCI five-dose assay; details: Renal cancer
[23] = system: TK-10; experiment: NCI five-dose assay; details: TK-10, Renal cancer
[24] = system: UO-31; experiment: NCI five-dose assay; details: UO-31, Renal cancer
[25] = system: DU-145; experiment: NCI five-dose assay; details: DU-145, Prostate cancer
[26] = system: MDA-MB-468; experiment: NCI five-dose assay; details: MDA-MB-468, Breast cancer
[27] = system: CNS cancer subpanel; experiment: NCI five-dose assay, subpanel mean
[28] = system: Renal cancer subpanel; experiment: NCI five-dose assay, subpanel mean
[29] = Homo sapiens, 48 h, read-out: LC50 (the source's name)
[30] = Homo sapiens, read-out: GI50 Conc. per Cell Lines
[31] = read-out: GI50 Conc. per Cell Lines

**Q.** With `Cc1ccc(/C(CSc2nnc(-c3c[nH]c4ccccc34)n2-c2ccccc2)=N/O)cc1` [Compound 7h, (Z)-2-((5-(1H-Indol-3-yl)-4-phenyl-4H-1,2,4-triazol-3-yl)thio)-1-(p-tolyl)ethanone Oxime] as the compound, how does the CC50 [1, 29] read?
**A.** > 100 µM

**Q.** And the GI50 [1, 30]?
**A.** 2.14 µM

**Q.** What about the “TGI Conc. per Cell Lines” value [1] of the same compound?
**A.** 4.98 µM

**Q.** What about the GI50 [2, 30] of the same compound?
**A.** 1.92 µM

**Q.** What about the “TGI Conc. per Cell Lines” value [2] of the same compound?
**A.** 3.96 µM

**Q.** And the CC50 ([3]; Homo sapiens, K562, 48 h, read-out: LC50 (the source's name))?
**A.** > 100 µM

**Q.** What about the GI50 ([3]; Homo sapiens, K562, read-out: GI50 Conc. per Cell Lines) of the same compound?
**A.** 2.01 µM

**Q.** And the “TGI Conc. per Cell Lines” value [3]?
**A.** 4.97 µM

**Q.** And the GI50 [4, 30]?
**A.** 2.04 µM

**Q.** And the “TGI Conc. per Cell Lines” value [4]?
**A.** 4.23 µM

**Q.** And the CC50 [5, 29]?
**A.** > 100 µM

**Q.** And the GI50 [5, 30]?
**A.** 2.05 µM

**Q.** And the “TGI Conc. per Cell Lines” value [5]?
**A.** 4.81 µM

**Q.** And the CC50 [6, 29]?
**A.** > 100 µM

**Q.** And the “TGI Conc. per Cell Lines” value [6]?
**A.** ˃100 µM

**Q.** What about the “TGI Conc. per Cell Lines” value [7] of the same compound?
**A.** 37.40 µM

**Q.** What about the CC50 [7, 29] of the same compound?
**A.** > 100 µM

**Q.** What about the GI50 [7, 30] of the same compound?
**A.** 11.9 µM

**Q.** What about the CC50 [8, 29] of the same compound?
**A.** 7.04 µM

**Q.** And the GI50 [8, 30]?
**A.** 1.79 µM

**Q.** What about the “TGI Conc. per Cell Lines” value [8] of the same compound?
**A.** 3.55 µM

**Q.** And the CC50 [9, 29]?
**A.** 9.43 µM

**Q.** And the GI50 [9, 30]?
**A.** 2.06 µM

**Q.** And the “TGI Conc. per Cell Lines” value [9]?
**A.** 4.41 µM

**Q.** And the CC50 [10, 29]?
**A.** 5.73 µM

**Q.** And the GI50 [10, 30]?
**A.** 1.75 µM

**Q.** What about the “TGI Conc. per Cell Lines” value [10] of the same compound?
**A.** 3.17 µM

**Q.** And the CC50 [11, 29]?
**A.** 59.1 µM

**Q.** And the GI50 [11, 30]?
**A.** 2.26 µM

**Q.** And the “TGI Conc. per Cell Lines” value [11]?
**A.** 5.57 µM

**Q.** And the CC50 [12, 29]?
**A.** > 100 µM

**Q.** What about the GI50 [12, 30] of the same compound?
**A.** 2.88 µM

**Q.** And the “TGI Conc. per Cell Lines” value [12]?
**A.** 8.96 µM

**Q.** What about the CC50 ([13]; 48 h, read-out: LC50 (the source's name)) of the same compound?
**A.** > 100 µM

**Q.** What about the GI50 [13, 31] of the same compound?
**A.** 2.57 µM

**Q.** And the CC50 [14, 29]?
**A.** 6.31 µM

**Q.** And the GI50 [14, 30]?
**A.** 1.69 µM

**Q.** And the “TGI Conc. per Cell Lines” value [14]?
**A.** 3.26 µM

**Q.** What about the LC50 ([15]; 48 h) of the same compound?
**A.** > 100 µM

**Q.** And the GI50 [15, 31]?
**A.** 4.26 µM

**Q.** And the LC50 ([16]; Homo sapiens, 48 h)?
**A.** 7.04 µM

**Q.** What about the GI50 [16, 30] of the same compound?
**A.** 1.75 µM

**Q.** And the “TGI Conc. per Cell Lines” value [16]?
**A.** 3.51 µM

**Q.** And the LC50 ([17]; Homo sapiens, 48 h)?
**A.** 5.73 µM

**Q.** What about the GI50 [17, 30] of the same compound?
**A.** 1.69 µM

**Q.** And the “TGI Conc. per Cell Lines” value [17]?
**A.** 3.11 µM

**Q.** And the LC50 ([18]; Homo sapiens, 48 h)?
**A.** 7.59 µM

**Q.** What about the GI50 [18, 30] of the same compound?
**A.** 2 µM

**Q.** And the “TGI Conc. per Cell Lines” value [18]?
**A.** 3.90 µM

**Q.** And the LC50 ([19]; Homo sapiens, 48 h)?
**A.** 6.26 µM

**Q.** And the GI50 [19, 30]?
**A.** 1.79 µM

**Q.** What about the “TGI Conc. per Cell Lines” value [19] of the same compound?
**A.** 3.35 µM

**Q.** What about the “TGI Conc. per Cell Lines” value [20] of the same compound?
**A.** 3.06 µM

**Q.** And the LC50 ([20]; Homo sapiens, 48 h)?
**A.** 5.74 µM

**Q.** And the GI50 [20, 30]?
**A.** 1.63 µM

**Q.** What about the LC50 (concentration killing 50% of cells) ([21]; Homo sapiens, RXF 393, 48 h) of the same compound?
**A.** 7.65 µM

**Q.** What about the GI50 ([21]; Homo sapiens, RXF 393, read-out: GI50 Conc. per Cell Lines) of the same compound?
**A.** 1.85 µM

**Q.** And the “TGI Conc. per Cell Lines” value [21]?
**A.** 3.76 µM

**Q.** What about the CC50 [22, 29] of the same compound?
**A.** 36.7 µM

**Q.** And the GI50 [22, 30]?
**A.** 2.33 µM

**Q.** And the “TGI Conc. per Cell Lines” value [22]?
**A.** 6.80 µM

**Q.** And the CC50 [23, 29]?
**A.** 7.9 µM

**Q.** And the GI50 [23, 30]?
**A.** 1.9 µM

**Q.** And the “TGI Conc. per Cell Lines” value [23]?
**A.** 3.87 µM

**Q.** And the CC50 [24, 29]?
**A.** 9.47 µM

**Q.** What about the GI50 [24, 30] of the same compound?
**A.** 1.82 µM

**Q.** And the “TGI Conc. per Cell Lines” value [24]?
**A.** 4.15 µM

**Q.** And the “TGI Conc. per Cell Lines” value [25]?
**A.** 4.01 µM

**Q.** What about the GI50 [25, 30] of the same compound?
**A.** 1.94 µM

**Q.** And the LC50 ([26]; Homo sapiens, 48 h)?
**A.** 5.64 µM

**Q.** And the GI50 [26, 30]?
**A.** 1.5 µM

**Q.** And the “TGI Conc. per Cell Lines” value [26]?
**A.** 2.91 µM

**Q.** What about the “GI50 Selectivity Ratio (MID a/MID b)” value ([27]; CNS cancer subpanel) of the same compound?
**A.** 1.04

**Q.** And the GI50 ([27]; Homo sapiens, average sensitivity of all cell lines of the CNS cancer subpanel, read-out: GI50 Subpanel MID b)?
**A.** 2.86 µM

**Q.** What about the GI50 ([28]; Homo sapiens, average sensitivity of all cell lines of the Renal cancer subpanel, read-out: GI50 Subpanel MID b) of the same compound?
**A.** 5.77 µM

**Q.** What about the “GI50 Selectivity Ratio (MID a/MID b)” value ([28]; Renal cancer subpanel) of the same compound?
**A.** 0.52

— PMC11859928, “Design, Synthesis, and Antiproliferative Activity of Novel Indole/1,2,4-Triazole Hybrids as Tubulin Polymerization Inhibitors” (Pharmaceuticals, 2025)
